Active and inactive are the calls of the source. The calls are words filed in the database; no cut-off is given here.
Key:
[1] = target: T1, Nuclear receptor ROR-gamma (Homo sapiens, UniProt P51449)
T1 sequence (P51449 whole entry): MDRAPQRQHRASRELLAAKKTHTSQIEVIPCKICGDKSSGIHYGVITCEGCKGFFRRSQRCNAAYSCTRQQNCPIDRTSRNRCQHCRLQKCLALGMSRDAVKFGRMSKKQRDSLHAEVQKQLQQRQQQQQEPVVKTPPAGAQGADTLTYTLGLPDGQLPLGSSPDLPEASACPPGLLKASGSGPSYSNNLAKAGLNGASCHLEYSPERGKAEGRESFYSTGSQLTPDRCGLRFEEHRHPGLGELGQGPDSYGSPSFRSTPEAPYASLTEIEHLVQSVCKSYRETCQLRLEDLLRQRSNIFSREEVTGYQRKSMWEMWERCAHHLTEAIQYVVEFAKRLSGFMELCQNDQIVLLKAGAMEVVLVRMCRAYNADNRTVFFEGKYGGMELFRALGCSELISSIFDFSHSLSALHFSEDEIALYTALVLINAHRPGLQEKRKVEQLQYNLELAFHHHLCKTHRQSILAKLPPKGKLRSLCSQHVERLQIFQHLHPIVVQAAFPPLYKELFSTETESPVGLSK

[2] = Half life in mouse liver microsomes at 1 uM in presence of NADPH by LC-MS/MS analysis; assay type: ADME, microsome
HEK-293T = experiment: Toxicity in HEK293T cells at 10 uM; assay type: cell-based; details: human
[3] = target: T2, Nuclear receptor ROR-alpha (Homo sapiens) (UniProt P35398); experiment: Inverse agonist activity at GAL4-DNA binding domain-fused human RORalpha ligand binding domain expressed in HEK293T cells incubated for 20 hrs by luciferase reporter gene assay; assay type: cell-based
T2 sequence (whole entry): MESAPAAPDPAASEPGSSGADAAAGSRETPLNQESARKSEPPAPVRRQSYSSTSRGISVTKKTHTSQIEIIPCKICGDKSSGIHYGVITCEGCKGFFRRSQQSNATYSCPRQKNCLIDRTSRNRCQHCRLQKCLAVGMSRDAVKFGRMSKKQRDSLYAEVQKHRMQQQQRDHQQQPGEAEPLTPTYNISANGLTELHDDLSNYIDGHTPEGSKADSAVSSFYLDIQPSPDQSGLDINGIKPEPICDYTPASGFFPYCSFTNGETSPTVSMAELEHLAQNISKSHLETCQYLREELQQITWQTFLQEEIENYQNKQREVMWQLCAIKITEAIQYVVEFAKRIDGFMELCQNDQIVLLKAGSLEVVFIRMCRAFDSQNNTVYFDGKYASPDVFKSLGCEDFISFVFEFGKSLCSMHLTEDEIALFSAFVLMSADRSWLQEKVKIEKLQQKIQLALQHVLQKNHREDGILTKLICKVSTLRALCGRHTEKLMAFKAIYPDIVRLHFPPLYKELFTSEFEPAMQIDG

Row | SMILES | IC50 [1] [µM] | t1/2 [2] [min] | Activity (HEK-293T) | Activity [3]
1 | Nc1nc(-c2ccc(Cl)c(C(F)(F)F)c2)c(C(=O)c2ccccc2Cl)s1 | > 40 |  |  | 
2 | Nc1nc(-c2cccc(C(F)(F)F)c2)c(C(=O)c2ccccc2Br)s1 | > 40 |  |  | 
3 | Nc1nc(-c2ccc(Br)c(C(F)(F)F)c2)c(C(=O)c2ccccc2Cl)s1 |  | 2.5 |  | 
4 | Nc1nc(-c2cccc(C(F)(F)F)c2)c(C(=O)c2c(F)cccc2C(F)(F)F)s1 | > 40 |  |  | 
5 | COc1ccccc1C(=O)c1sc(N)nc1-c1cc(Br)cc(C(F)(F)F)c1 |  | 2.3 | Non-Toxic | inactive
6 | Nc1nc(-c2cc(Br)cc(C(F)(F)F)c2)c(C(=O)c2ccccc2Cl)s1 | > 40 | 5.2 | Non-Toxic | inactive
7 | Nc1nc(-c2cccc(C(F)(F)F)c2)c(C(=O)c2ccccc2C(F)(F)F)s1 | > 40 |  |  | 
8 | CCS(=O)(=O)c1ccc(CC(=O)Nc2nc(-c3ccccc3Cl)c(C(=O)c3ccccc3Cl)s2)cc1 |  | 34 | Non-Toxic | 
9 | COc1ccccc1C(=O)c1sc(N)nc1-c1cc(C(F)(F)F)cc(C(F)(F)F)c1 |  | 5.2 |  | 
10 | Nc1nc(-c2cccc(Cl)c2)c(C(=O)c2ccccc2Cl)s1 |  | 1.9 | Non-Toxic | inactive
11 | COc1ccccc1C(=O)c1sc(N)nc1-c1ccc(Cl)c(C(F)(F)F)c1 | > 40 |  | Non-Toxic | inactive
12 | Nc1nc(-c2cccc(C(F)(F)F)c2)c(C(=O)c2ccccc2Cl)s1 |  | 2.9 |  | 
13 | Nc1nc(-c2cc(Cl)cc(C(F)(F)F)c2)c(C(=O)c2ccccc2Cl)s1 |  | 6.1 |  | 
14 | COc1ccccc1C(=O)c1sc(N)nc1-c1cccc(C(F)(F)F)c1 | > 40 |  |  | 
15 | Nc1nc(-c2cccc(C(F)(F)F)c2)c(C(=O)c2c(F)cccc2Cl)s1 | > 40 | 2.7 |  | 
16 | Nc1nc(-c2cc(C(F)(F)F)cc(C(F)(F)F)c2)c(C(=O)c2ccccc2Cl)s1 |  | 7.4 |  | 
